Results: patent publication US20220079962A1, “NUTRITIONAL COMPOSITION COMPRISING 2'FUCOSYLLACTOSE AND DIETARY BUTYRATE” (N.V. Nutricia, priority 2019, published 2022)

Columns and labels:
[1] = test system: human peripheral blood mononuclear cells (PBMC); test: PBMC cytokine levels, CD3/CD28 stimulated condition; format: cell-based; details: for Relative level of CCL17, observed / Relative level of IL-4, observed / Relative level of IL-13, observed: blanc = 1, 0.2 wt % 2′-FL, 0.1 wt % 3′-GL, mean
Protocol: Isolation of PBMC from healthy donors: Human peripheral blood mononuclear cells (PBMC) from healthy donors were isolated from buffy coats (Sanquin, Amsterdam, the Netherlands). PBMC were obtained by centrifugation using Leucosep tubes (Greiner Bio-One). PBMC were collected and washed in PBS (Gibco, Thermo Fisher Technologies)+2% heat-inactivated FCS (Invitrogen), followed by hypotonic lysis of erythrocytes with sterile lysis buffer (0.15 M NH4Cl, 0.01 M KHCO3 and 0.1 mM EDTA, pH of 7.4 at 4° C., all from Merck, Darmstadt, Germany). After lysis, the PBMC were resuspended in freezing medium (70% RPMI 1640 medium (Gibco, Thermo Fisher Technologies) supplemented with 10% heat-inactivated FCS and 100 U/ml penicillin-streptomycin, 20% heat-inactivated FCS and 10% DMSO (Sigma)) and cryopreserved.
PBMC activation model: PBMC (0.2.10^6 cell/well) were cultured in 96-well flat bottom plates (Corning). For 24 hours the cells were pre-incubated with 2′-FL (Jennewein), 3′-GL (0-0.3% w/v; Carbosynth) or sodium butyrate (0.2 mM; Sigma Aldrich) and combinations thereof. Subsequently, the cells were CD3/CD28-activated (Pelicluster CD3 and Pelicluster CD28, Sanquin) for an additional 24 hours. After incubation, IFNγ was measured by ELISA in the supernatants (see below). To determine cell activity after stimulation, PBMC were incubated with cell proliferation reagent WST-1 (10 μl; Roche) and/or 10% Triton (5 μl; negative control). After 3 hours, absorbance was measured at OD450 nm and OD650 nm and cell activity was calculated according to manufacturer's instructions.
Cytokine production of PBMC: PBMC were incubated with indicated reagents. After incubation, the supernatants were collected and IL2, IL6, IL10, IL13, IL21, TNFα, IFNγ, MIF, CCL1, CCL13, CCL17, CCL20, CCL22 and CXCL8-11 levels were measured by conducting a validated multiplex immunoassay based on Luminex technology (xMAP, Luminex Austin Tex. USA). Acquisition was conducted with the Biorad FlexMAP3D (Biorad laboratories, Hercules USA) in combination with xPONENT software version 4.2 (Luminex). Data was analyzed by 5-parametric curve fitting using Bio-Plex Manager software, version 6.1.1 (Biorad).
After PBMC stimulation, cell culture supernatants were collected, after which cytokine responses were measured in order to test immune responsiveness of the cells. […] In addition, since each donor is reacting in its own efficiency onto the T cell stimulus, we calculated the individual index of cytokine response by dividing the intervention induced response by the basal stimulated response.
Subsequently, in order to test the direct effect of specific compounds on PBMC activity, the cells were activated with CD3/CD28 for 24 hours after a pre-incubated for 24 h with either 2′-FL, 3′-GL and combinations thereof. In addition, since each donor is reacting in its own efficiency onto the T cell stimulus, the individual index of cytokine response was calculated by dividing the intervention induced response by the basal stimulated response (the blanc is set at 1). In this way the intervention within 10 different donors has been studied.

Caco-2 cell monolayer = test: DON-induced impairment of Caco-2 cell monolayer integrity (TEER, lucifer yellow flux); format: cell-based, human
Protocol: Caco-2 cells were used according to established methods. In brief: cells were cultured in Dulbecco's modified Eagle medium (DMEM) and seeded at a density of 0.3×10^5 cells into 0.3 cm^2 high pore density (0.4 μm) inserts with a polyethylene terephthalate membrane (BD Biosciences, Franklin Lakes, N.J., USA) placed in a 24-well plate. The Caco-2 cells were maintained in a humidified atmosphere of 95 air and 5% CO2 at 37° C.
Caco-2 cell monolayers were thus grown in a transwell system, which is a model for intestinal barrier function. The monolayers were pretreated for 24 h with different GLs, including beta3′-GL, alpha3′-GL, beta4′-GL and beta6′-GL in a concentration of 0.75 wt. % of the GL, before being exposed to the fungal toxin deoxynivalenol (DON), which is a trigger and model compound to impair intestinal barrier. DON was diluted to a final concentration of 4.2 μM in complete cell medium and added to the apical side as well as to the basolateral side of the transwell inserts. […] Incubation with DON was 24 h.
Measurements of the transepithelial electrical resistance (TEER) and lucifer yellow (LY) permeability were conducted to investigate barrier integrity. For TEER measurements a Millicel-ERS voltohmmeter connected to a pair of chopsticks electrodes was used to measure the TEER values. Results are expressed as a percentage of the initial value. For paracellular tracer flux assay the membrane impermeable lucifer yellow (LY) (Sigma, St Louis, Mo., USA) was added in a concentration of 16 μg/ml to the apical compartment in the transwell plate for 4 h, and the paracellular flux was determined by measuring the fluorescence intensity in the basolateral compartment with a spectrophotofluorimeter (FLUOstar Optima, BMG Labtech, Offenburg, Germany) set at excitation and emission wavelengths of 410 and 520 nm, respectively. Release of interleukin-8 (IL-8 or CXCL8), which is a typical marker for inflammation, was quantified in the medium of the apical side and the basolateral side of the Caco-2 transwell inserts in response to the treatments. CXCL8 concentrations were measured by using the human IL-8 ELISA assay (BD Biosciences, Pharmingem, San Diego, Calif., USA) according to manufacturer's instructions. For more details on materials and methods see Akbari et al, 2016, Eur J Nutr. 56(5):1919-1930.

[2] = test system: Salmonella enteriditis S29; test: Fecal slurry fermentation spiked with pathogens, Salmonella growth
Protocol: In addition the test legs were supplemented with Clostridium difficile C153 (difficile agar), Salmonella enteriditis S29 (XLD agar), Cronobacter sakasakii E71 (chromogenic agar) or Klebsiella pneumonia K2 (Simons citrate inositol agar). For every NDO and for the control also a pathogen free culture was prepared.
The experiment was started, and pH setpoint was either 5.5 (facial inoculum from infant 1, vaginally born, breast fed) or pH 6.0 (Inoculum from infant 2, vaginally born, breast fed) with continuous pH regulation, and temperature 37° C., humidity 85%, OD control. At 4, 8 and 24 hours a sample is taken for CFU determination on TOS-propionate MUP agar (total Bifidobacteria), XLD agar for Salmonella enteriditis S29, and Simons citrate inositol agar for Klebsiella pneumonia K2 and for SCFA, D- and L Lactate and ammonia analysis. Fecal pellet was used for 16s DNA sequencing. For both inocula the extent of fermentation, as measured by NaOH consumption, i.e. acid production, was highest with the combination of 3′-GU2′-FL, when compared to 3′-GL or 2′-FL alone. The rate of initial acidification was high for 3′-GL and for 3′-GL/2′-FL. […] As the amount of carbohydrates that can be fermented is the same in the reaction vessels, the higher total acidification with the combination is indicative for an unexpected, synergistic effect of the combination of 2′-FL and 3′-GL. […]

[3] = DON 4.2 μM with 2′-FL 1 mg/ml, mean

Compound | CCL17 levels [1] | levels of IL-4 and IL-13 compared to control [1] | Relative level of CCL17, observed [1] | Relative level of IL-4, observed [1] | Relative level of IL-13, observed [1] | effect on DON-induced loss of epithelial barrier integrity (TEER, LY flux) (Caco-2 cell monolayer; 24 h pretreatment with 0.75 wt. % GL, then DON 4.2 μM 24 h, FIGS. 1A-D) | Salmonella growth ([2]; inoculum of baby 1) | Salmonella growth ([2]; inoculum of baby 2) | effect on DON induced reduction in TEER and increase in LYF (Caco-2 cell monolayer; 2′-FL 1 mg/ml) | Lucifer yellow flux (Caco-2 cell monolayer; [3]) | TEER (% of initial value) (Caco-2 cell monolayer; [3])
Gal (beta 1-3)-Gal (beta 1-4)-Glc [3′-GL] | no significant effect on CCL17 levels | a decrease was detected | 0.6212 | 0.5825 | 0.5472 | prevented the DON-induced loss of epithelial barrier integrity |  |  |  |  | 
C[C@@H]1O[C@@H](O[C@H]2[C@H](O[C@H]3[C@H](O)[C@@H](O)C(O)O[C@@H]3CO)O[C@H](CO)[C@H](O)[C@@H]2O)[C@@H](O)[C@H](O)[C@@H]1O (stereo partly drawn) [2′-FL, α-L-Fuc-(1→2)-β-D-Gal-(1→4)-D-Glc] | no significant effect on CCL17 levels | had no effect on the levels of IL-4 and IL-13 | 1.061 | 0.9887 | 1.039 |  | most restricted | most restricted | statistically significantly prevent the DON induced reduction in TEER and increase in LYF | 446.4 ng/ml (cm^2 × h) | 42.79 % of initial value
